From paper PMC7767399, “Targeted Isolation of Anti-Trypanosomal Naphthofuran-Quinone Compounds from the Mangrove Plant Avicennia lanata” (Marine Drugs, 2020)
≈ marks a conversion by molar mass, not a printed value. Like-named read-outs stand apart in the source and are kept apart here. Blank lines part the entries; values can stand above or below the compound they belong to.

Key:
[1] = test system: epimastigotes of T. cruzi; parameters: method as in PMID 8788584; details: read-out: 50% culture growth inhibition (GI50); cited from earlier work
[2] = test system: epimastigotes of T. cruzi; parameters: method as in doi:10.1016/0960-894X(95)00248-R; details: cited from earlier work
[3] = test system: PNT2A cells; assay: Cytotoxicity Alamar Blue assay on normal prostatic epithelial cells; format: cell-based, human; details: 100 μg/mL, % of DMSO control values, n = 3
Description: Meanwhile, the initial screening for cytotoxicity activity of the isolated compounds was performed on human normal prostatic epithelial cells (PNT2A) at 100 μg/mL. […] In the initial screening, if the cell viability is less than 60%, a concentration response test at 0.3 to 300 μg/mL was carried on.
The pure compounds from mangrove plant, A. lanata were tested for cytotoxicity in vitro against human normal prostatic epithelial cell line (PNT2A) derived from ECACC (Sigma-Aldrich, Dorset, UK).
The cytotoxicity activity of the pure compounds was determined using the well-established Alamar Blue™ redox-based 96-well microplate assay, in which the screening procedure was modified from. PNT2A cells were seeded into 96-well microplate assay at density of 0.5 × 10^4 cells/well in 100 μL of Dulbecco’s modified Eagle’s medium (DMEM; Invitrogen, Paisley, UK) and incubated at 37 °C, 5% CO2 with a humidified atmosphere for 24 h. […] The microplate plate was incubated at 37 °C, 5% CO2 with a humidified atmosphere for 24 h, then 10 μL of Alamar blue was added. The microplate was further incubated for another 20 h, then the fluorescence was measured using a Wallac Victor 2 microplate reader (Perkin Elmer, Cambridge, UK) (excitation: 530 nm, emission 590 nm). The results were calculated as % of the DMSO control values.

[4] = test system: T. b. brucei; assay: Anti-trypanosomal Alamar blue 96-well microplate assay; format: cell-based, Trypanosoma brucei brucei S427 (blood stream form); details: for MIC: read-out: MIC (minimum inhibitory concentration necessary to achieve 90% growth inhibition); for anti-trypanosomal activity (in words): screening of extract/fractions at 20, 10 and 5 μg/mL, pure compounds by MIC
Description: Each fraction was screened at different concentrations of 20, 10 and 5 μg/mL. The assay was performed in duplicate for each sample.
MIC assays were performed for samples having greater than 90% inhibition at a concentration of 20 μM in the initial screening campaign. The MIC values of the isolated compounds against T. b. brucei were determined by averaging the results of two independent assays. The concentrations were averaged and converted to μM.
The activity of the pure compounds was tested in vitro against the blood stream form of Trypanosomal brucei brucei (T. b. brucei) S427. The activity of the samples was determined using the well-established Alamar blue™ 96-well microplate assay, in which the screening procedure was modified from the microplate Alamar blue assay, to determine the drug sensitivity of African trypanosomes. The samples were initially screened at one concentration (20 μg/mL crude extracts or fractions, 20 μM for pure compounds) to determine their in vitro activity. Stock solutions of tested samples in DMSO (Acros Organics BVBA, Janssen Pharmaceutical, Geel, Belgium) were prepared at concentrations of 10 mg/mL (extracts) or 10 mM for pure compounds. The concentration of DMSO should not exceed 0.5% of the final test solution.

[5] = test system: Giardia lamblia trophozoites; parameters: method as in doi:10.29356/jmcs.v56i2.305; details: read-out: IC50 (giardicidal activity); cited from earlier work
[6] = test system: T. b. rhodesiense; parameters: method as in PMID 21438586; details: T. b. rhodesiense in vitro bloodstream trypomastigotes; cited from earlier work
[7] = test system: T. cruzi; parameters: method as in earlier work; details: cited from earlier work
[8] = test system: bloodstream strain of T. b. brucei; parameters: method as in PMID 17637068; details: cited from earlier work
[9] = different strains of T. cruzi epimastigotes, at 13–17 μM of the tested compounds
[10] = T. cruzi epimastigotes, compounds with two methoxy groups on the benzene ring
[11] = T. b. brucei, two independent assays
[12] = Trypanosoma brucei, T. b. brucei, two independent assays

Structure (SMILES): CC1OC2=C(C(=O)c3ccccc3C2=O)C1(C)C (single isomer, unassigned; (-)) [(−)-2,3,3-trimethyl-2-3-dihydronaphtho [2,3-b]furan-4,9-quinone]
- GI50 [1]: 2.1 to 5.2 µM

Structure (SMILES): COc1ccc2c(c1)C(=O)c1cc(C(C)O)oc1C2=O (stereo not drawn) [2-(1-hydroxyethyl)-6-methoxynaphtho[2,3-b]furan-4,9-quinone]
- growth inhibition (GI) [2, 9]: 100%

Structure (SMILES): COc1ccc2c(c1OC)C(=O)c1oc(C(C)O)cc1C2=O (stereo not drawn) [2-(1-hydroxyethyl)-7,8-dimethoxynaphtho[2,3-b]furan-4,9-quinone]
- growth inhibition (GI) [2, 10]: 22%

Structure (SMILES): COc1ccc2c(c1)C(=O)c1cc(C(C)=O)oc1C2=O [2-acetyl-6-methoxynaphtho[2,3-b]furan4,9-quinone]
- growth inhibition (GI) [2, 9]: 100%

Structure (SMILES): COc1ccc2c(c1OC)C(=O)c1oc(C(C)=O)cc1C2=O [2-acetyl-7,8-dimethoxynaphtho[2,3-b] furan-4,9-quinone]
- growth inhibition (GI) [2, 10]: 45%

Structure (SMILES): COc1ccc2c(c1OC)C(=O)c1ccoc1C2=O [5,6-dimethoxynaphtho [2,3-b]furan-4,9-quinone]
- growth inhibition (GI) [2, 10]: 45%

Structure (SMILES): COc1ccc2c(c1OC)C(=O)c1occc1C2=O [7,8-dimethoxynaphtho[2,3-b]furan-4,9-quinone]
- growth inhibition (GI) [2, 10]: 25%

- MIC [4, 11]: 12.50 µM (≈ 3.25 µg/mL)
- MIC [4, 12]: 12.5 µM (≈ 3.25 µg/mL)
Structure (SMILES): CC(C)(O)C1Cc2c(c(O)c3ccccc3c2O)O1 (stereo not drawn) [Compound 1, 2-(2-hydroxypropan-2-yl)-2,3-dihydronaphtho-[2,3-b] furan-4,9-diol]
- Cell viability, % of DMSO control [3]: 86.1%

- MIC [4, 11]: 12.50 µM (≈ 4.11 µg/mL)
- MIC [4, 12]: 12.5 µM (≈ 4.11 µg/mL)
Structure (SMILES): CC(C)=CCC12OC(C(C)(C)O)CC1=C(O)c1ccccc1C2=O (stereo not drawn) [Compound 2, glycosemiquinone]
- Cell viability, % of DMSO control [3]: 86.1%

- MIC [4, 12]: 6.25 µM (≈ 1.8 µg/mL)
Structure (SMILES): COc1c2c(c(OC)c3ccccc13)OC(C(C)(C)O)C2 (stereo not drawn) [Compound 3, avicenol C]
- Cell viability, % of DMSO control [3]: 78.3%

- MIC [4, 12]: 3.12 µM (≈ 0.8 µg/mL)
Structure (SMILES): CC(C)(O)c1cc2c(o1)C(=O)c1ccccc1C2=O [Compound 4, avicequinone C]
- Cell viability, % of DMSO control [3]: 68.6%

- MIC [4, 11]: 12.50 µM (≈ 4.11 µg/mL)
- MIC [4, 12]: 12.5 µM (≈ 4.11 µg/mL)
Structure (SMILES): CC(C)=CCC12OC(C(C)(C)O)CC1C(=O)c1ccccc1C2=O (stereo not drawn) [Compound 5, glycoquinone]
- Cell viability, % of DMSO control [3]: 80.3%

- MIC [4, 12]: 154 µM (≈ 65.5 µg/mL)
Structure (SMILES): CC1(C)CC[C@]2(C)CC=C3[C@]4(C)CC[C@H]5C(C)(C)C(=O)CC[C@]5(C)[C@H]4CC[C@@]3(C)[C@@H]2C1 [Compound 6, taraxerone]
- Cell viability, % of DMSO control [3]: 88.8%
- IC50 [5]: 26.7 µM
- anti-trypanosomal activity (in words) ([4]; T. b. brucei): inactive

- MIC [4, 12]: 145 µM (≈ 62 µg/mL)
Structure (SMILES): CC1(C)CC[C@]2(C)CC=C3[C@]4(C)CC[C@H]5C(C)(C)[C@@H](O)CC[C@]5(C)[C@H]4CC[C@@]3(C)[C@@H]2C1 [Compound 7, taraxerol]
- Cell viability, % of DMSO control [3]: 92.8%
- IC50 [5]: 37.8 µM
- anti-trypanosomal activity (in words) ([4]; T. b. brucei): inactive
- IC50 [6]: < 10 µM

Structure (SMILES): CC[C@H](CC[C@@H](C)[C@H]1CC[C@H]2[C@@H]3CC=C4C[C@@H](O)CC[C@]4(C)[C@H]3CC[C@]12C)C(C)C [Compound 8, β-sitosterol]
- Cell viability, % of DMSO control [3]: 96.2%
- anti-trypanosomal activity (in words) ([4]; T. b. brucei): inactive
- MIC ([4]; Trypanosoma brucei): 142 µM (≈ 59 µg/mL)

Structure (SMILES): CC[C@H](/C=C/[C@@H](C)[C@H]1CC[C@H]2[C@@H]3CC=C4C[C@@H](O)CC[C@]4(C)[C@H]3CC[C@]12C)C(C)C [Compound 9, stigmasterol]
- Cell viability, % of DMSO control [3]: 98.7%
- anti-trypanosomal activity (in words) ([4]; T. b. brucei): very low activity
- MIC ([4]; Trypanosoma brucei): 126 µM (≈ 52.2 µg/mL)

Structure (SMILES): Cc1cccc2c1C(=O)c1c(CO)coc1C2=O [maturone]
- trypanocidal activity (in words) [7]: potent trypanocidal activity

Structure (SMILES): Cc1ccc(C(=O)Nc2ccc(S(=O)(=O)O)c3cc(S(=O)(=O)O)cc(S(=O)(=O)O)c23)cc1NC(=O)c1cccc(NC(=O)Nc2cccc(C(=O)Nc3cc(C(=O)Nc4ccc(S(=O)(=O)O)c5cc(S(=O)(=O)O)cc(S(=O)(=O)O)c45)ccc3C)c2)c1 [suramin, reference compound]
- MIC ([4]; Trypanosoma brucei): 0.11 µM (≈ 0.143 µg/mL)

Structure (SMILES): CC(C)(C)CC(C)(C)c1ccc(OCCO)cc1 [triton X, reference compound]
- Cell viability, % of DMSO control [3]: 0.082%

Structure (SMILES): CC1(C)CC[C@]2(C)CC[C@]3(C)C(=CC[C@@H]4[C@@]5(C)CC[C@H](O)C(C)(C)[C@@H]5CC[C@]43C)[C@@H]2C1 [β-amyrin]
- IC50 [8]: 127 µM
